Data set [1] deals with neonatal human dermal fibroblasts (ATCC PCS-201-010). Put plainly: Cytotoxic activity, fibroblast proliferation (sulforhodamine B). The data set is classed as cell-based. Conditions: for cytotoxic activity on fibroblast proliferation: 96 h, 6.25–100 μg/cm^3. How it is done:
Passage for normal neonatal human dermal fibroblasts (ATCC PCS-201-010, lot 58243223) were grown in DMEM with 5 % calf serum (Hyclone). For the experiment, cells were plated in DMEM/5 % serum at 2,000 cells/well in 96 well plates (plate 598) and were exposed to test materials for 96 h. MAP and bFGF were used as the positive controls and water, 1, 0.5, and 0.25 % DMSO were used as the negative controls. Plate growth was stopped and cells were stained with a sulforhodamine B dye. The dye was then dissolved and a colorimetric signal proportional to total cell/protein count was quantified with the BioRad microplate spectrophotometer 3550-UV at 570 nm with background subtraction at 660 nm and analyzed with Microplate Manager v.2 software for Macintosh (BioRad). Error bars represent standard errors of the mean (SEM). P values representing statistical significance were calculated using the t test.

The subject of another data set is P. acnes ATCC 11827. Put plainly: Antibacterial activity, MIC in broth serial dilution. As to conditions: for MIC: Cutibacterium acnes, ATCC11827, 72 h, read-out: MIC P. acnes, P. acnes ATCC 11827, 72 h anaerobic.
The subject of another data set is M. tuberculosis sp. 192. The experiment in a line: Tuberculostatic activity, classical test-tube method of successive dilution. Format: cell-based. As to conditions: Mycobacterium tuberculosis; sp. 192, fully sensitive wild strain.
The subject of data set [2] is Mycobacterium tuberculosis H37Rv strain. Described as above. The data set is classed as cell-based.
A further data set relates to UO-31. The experiment in a line: NCI-60 DTP human tumor cell line screening. Format: cell-based. As to conditions: for inhibition at 10 µM: Homo sapiens.
Data set [3] has as its system panel of 60 human tumor cell lines. The experiment in a line: NCI-60 DTP human tumor cell line screening, whole panel. Conditions: 10 μM, mean of growth percent for all tested cell lines.
For a further data set, the system named is MALME-3M. The experiment in a line: NCI-60 DTP human tumor cell line screening. Format: cell-based. Conditions: Homo sapiens; one dose 10 μM, Melanoma MALME-3M; read-out: Growth inhibition ΔGI.
In the next data set the test system is A498. The experiment in a line: NCI-60 DTP human tumor cell line screening. Format: cell-based. As to conditions: Homo sapiens; one dose 10 μM, Renal cancer A498; read-out: Growth inhibition ΔGI.
For the next data set, the system named is SNB-75. The experiment in a line: NCI-60 DTP human tumor cell line screening. The data set is classed as cell-based. As to conditions: Homo sapiens; one dose 10 μM, CNS cancer SNB-75; read-out: Growth inhibition ΔGI.
In the next data set the test system is NCI-H522. Put plainly: NCI-60 DTP human tumor cell line screening. Format: cell-based. Conditions: Homo sapiens; one dose 10 μM, Non-small cell lung cancer NCI-H522; read-out: Growth inhibition ΔGI.
The subject of the next data set is HOP-92. Put plainly: NCI-60 DTP human tumor cell line screening. The data set is classed as cell-based. As to conditions: Homo sapiens; one dose 10 μM, Non-small cell lung cancer HOP-92; read-out: Growth inhibition ΔGI.
Data set [4] has as its system Mycobacterium tuberculosis H37Rv, sp. 210 and sp. 192. The experiment in a line: Tuberculostatic activity, three tested strains together. The data set is classed as cell-based.
The mark [5] stands for this setting: UO-31, one dose 10 μM, Renal cancer UO-31, read-out: Growth inhibition ΔGI.

≈ marks a conversion by molar mass, not a printed value. Like-named read-outs stand apart in the source and are kept apart here.

Method for P. acnes ATCC 11827: Compounds were tested at serial dilutions in bacterial broth starting at 100 μg/cm^3 (final concentration). P. acnes (ATCC 11827, lot 419697) was grown in thioglycollate nutrient broth (Hardy Diagnostics K29) for 72 h at 33 °C, then inoculated at the density equivalent to 0.5 McFarland standard and incubated with the test materials for another 72 h in an anaerobic environment. […] At the end of the incubation the MIC was assessed optically as the lowest concentration of a test material which caused no bacteria growth [34]. This optical assessment was further confirmed by measuring the absorbance at 655 nm with the BioRad 3550-UV microplate reader. The MIC was defined as at least 50 % inhibition of the increase of OD.

`NC(=NS(=O)(=O)c1ccccc1Cl)c1ccccn1` [Compound 1, N′-[(2-Chlorophenyl)sulfonyl]-2-pyridinecarboximidamide]: the melting point is 140 to 142 °C. Besides, the growth inhibitory activity in [1] (100 μg/cm^3) was found to be 88%. Moreover, the cytotoxic effect entry in data set [1] (6.25–12.5 μg/cm^3) was “no cytotoxic effect was evident”. Also, the “cytotoxic activity on fibroblast proliferation” value in data set [1] is recorded as “weak inhibitory activity”. The MIC in the data set with P. acnes ATCC 11827 lay in the range of 12.5 to 50 µg/mL (≈ 42.3 to 169 µM). Further, in the data set with P. acnes ATCC 11827 (P. acnes ATCC 11827, 72 h anaerobic), the “MIC P. acnes” value is 25 µg/mL (≈ 84.5 µM).
`NC(=NS(=O)(=O)c1cnccc1Cl)c1ccccn1` [Compound 2, N′-[(4-Chloropyridin-3-yl)sulfonyl]-2-pyridinecarboximidamide]: the MIC (in the data set with M. tuberculosis sp. 192; in [2]) was 50 µg/mL (≈ 168 µM) each time. In data set [1], the “cytotoxic activity on fibroblast proliferation” value is on record as “no cytotoxic activity”. The inhibition at 10 µM in the data set on UO-31 (UO-31, read-out: Growth inhibition ΔGI) worked out at 20.4%. Besides, the “Growth percent mean values (MG_MID)” value in data set [3] came out at 98.2%.
`N/C(=N\S(=O)(=O)c1ccccc1Cl)c1cccnc1` [Compound 3, (Z)-N′-[(2-Chlorophenyl)sulfonyl]-3-pyridinecarboximidamide] displayed a melting point of 188 to 190 °C. Moreover, in the data set on P. acnes ATCC 11827, the MIC was more than 100 µg/mL.
With `N/C(=N\S(=O)(=O)c1cnccc1Cl)c1cccnc1` [Compound 4, (Z)-N′-[(4-Chloropyridin-3-yl)sulfonyl]-3-pyridinecarboximidamide], the inhibition at 10 µM was determined as 20% with MALME-3M and 24.1% in the data set with A498. Further, in the data set on P. acnes ATCC 11827, the MIC was more than 100 µg/mL. Besides, the “Growth percent mean values (MG_MID)” value in data set [3] stood at 104.8%.
In turn, `NC(=NS(=O)(=O)c1ccccc1Cl)c1ccncc1` [Compound 5, N′-[(2-Chlorophenyl)sulfonyl]-4-pyridinecarboximidamide] registered a melting point of 182 to 185 °C. Moreover, the MIC in the data set with P. acnes ATCC 11827 was more than 100 µg/mL.
On the same counts, the results for `NC(=NS(=O)(=O)c1cnccc1Cl)c1ccncc1` [Compound 6, N′-[(4-Chloropyridin-3-yl)sulfonyl]-4-pyridinecarboximidamide] are 215 to 218 °C and more than 100 µg/mL.
For `NC(=NS(=O)(=O)c1ccccc1Cl)c1ncccn1` [Compound 7, N′-[(2-Chlorophenyl)sulfonyl]pyrimidine-2-carboximidamide], the MIC with M. tuberculosis sp. 192 is 50 µg/mL (≈ 168 µM); in data set [2], 50 µg/mL (≈ 168 µM); in the data set on P. acnes ATCC 11827 it was more than 100 µg/mL. Also, the inhibition at 10 µM with UO-31 (setting [5]) stood at 19.4%. Besides, in data set [3], the “Growth percent mean values (MG_MID)” value was 103.0%.
The compound `NC(=NS(=O)(=O)c1cnccc1Cl)c1ncccn1` [Compound 8, N′-[(4-Chloropyridin-3-yl)sulfonyl]pyrimidine-2-carboximidamide] gave a melting point of 162 to 163 °C. Moreover, inhibition of growth in the data set with M. tuberculosis sp. 192 (MIC) required 50 µg/mL (≈ 168 µM). The compound further registered an MIC in data set [2] of 50 µg/mL (≈ 168 µM). Besides, the MIC with P. acnes ATCC 11827 is more than 100 µg/mL.
`NC(=NS(=O)(=O)c1ccccc1Cl)c1cnccn1` [Compound 9, N′-[(2-Chlorophenyl)sulfonyl]pyrazine-2-carboximidamide] returned a melting point of 173 to 174 °C. For the same compound, the MIC in the data set with P. acnes ATCC 11827 was more than 100 µg/mL.
Turning to `NC(=NS(=O)(=O)c1cnccc1Cl)c1cnccn1` [Compound 10, N′-[(4-Chloropyridin-3-yl)sulfonyl]pyrazine-2-carboximidamide], the MIC against M. tuberculosis sp. 192 was 25 µg/mL (≈ 84 µM); in [2], 50 µg/mL (≈ 168 µM); with P. acnes ATCC 11827, more than 100 µg/mL. Further, the “Growth percent mean values (MG_MID)” value in data set [3] is given as 101.9%. The inhibition at 10 µM with SNB-75 was determined as 19.3%.
`NC(=NS(=O)(=O)c1ccccc1Cl)c1cncc(Cl)n1` [Compound 11, 6-Chloro-N′-(2-chlorophenylsulfonyl)pyrazine-2-carboximidamide]: the inhibition at 10 µM was 19.4 to 21.1% in the data set with UO-31 (setting [5]) and 22.6% in the data set on MALME-3M. In the data set with UO-31 (one dose 10 μM, Renal cancer UO-31), the “Growth inhibition ΔGI” value worked out at 22.6%. The MIC in the data set with P. acnes ATCC 11827 is more than 100 µg/mL. Moreover, in data set [3], the “Growth percent mean values (MG_MID)” value is on record as 102.1%.
On to `NC(=NS(=O)(=O)c1cnccc1Cl)c1cncc(Cl)n1` [Compound 12, 6-Chloro-N′-[(4-chloropyridin-3-yl)sulfonyl]pyrazine-2-carboximidamide], for which the MIC in the data set with P. acnes ATCC 11827 is more than 100 µg/mL. Moreover, the inhibition at 10 µM with NCI-H522 amounted to 143%; with HOP-92, 25.9%. For the same compound, the “Growth percent mean values (MG_MID)” value in data set [3] was 97.8%.
For the compound `COc1cncc(C(N)=NS(=O)(=O)c2ccccc2Cl)n1` [Compound 13, N′-(2-Chlorophenylsulfonyl)-6-methoxypyrazine-2-carboximidamide], the melting point was 227 to 230 °C. In addition, in the data set with P. acnes ATCC 11827, the MIC is more than 100 µg/mL.
On the same counts, the results for `COc1cncc(C(N)=NS(=O)(=O)c2cnccc2Cl)n1` [Compound 14, N′-[(4-Chloropyridin-3-yl)sulfonyl]-6-methoxypyrazine-2-carboximidamide] are 265 to 270 °C (dec.) and more than 100 µg/mL.
For the compound `NC(=NS(=O)(=O)c1cnccc1Cl)c1ccc2ccccc2n1` [Compound 16, N′-[(4-Chloropyridin-3-yl)sulfonyl]quinoline-2-carboximidamide], the MIC in the data set on P. acnes ATCC 11827 is more than 100 µg/mL.
Turning to `NNC(=O)c1ccncc1` [INH, isoniazid, reference compound], the results for the MIC (against M. tuberculosis sp. 192; in data set [4]; in [2]) were 0.5 µg/mL (≈ 3.65 µM), 0.5 to 1 µg/mL (≈ 3.65 to 7.29 µM) and 0.5 µg/mL (≈ 3.65 µM), respectively.

By melting point is commonly meant the temperature of the solid-liquid transition. One may read the MIC as the smallest concentration in the dilution series that meets the test's criterion for growth inhibition. As a reminder, the inhibition is the relative decrease from the control value, in per cent.

(Values after paper PMC4494771, “Synthesis, structure, and biological activity of novel heterocyclic sulfonyl-carboximidamides” (Monatshefte Fur Chemie, 2013).)
